# Measured values: ChEMBL document CHEMBL1201862, “PubChem BioAssay data set” (2004)
# Active and inactive are the calls of the source.
# How the values were obtained:
# [1] = biological target: T1, Type-1 angiotensin II receptor (Homo sapiens, UniProt P30556); test: AT1 receptor antagonists, dose response, selectivity assay for APJ receptor antagonist project, cell-based, uHTS hits (AID 463214); assay type: functional;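 also: antagonist potency against angiotensin II stimulated AT1 response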
# T1 sequence (P30556 whole entry): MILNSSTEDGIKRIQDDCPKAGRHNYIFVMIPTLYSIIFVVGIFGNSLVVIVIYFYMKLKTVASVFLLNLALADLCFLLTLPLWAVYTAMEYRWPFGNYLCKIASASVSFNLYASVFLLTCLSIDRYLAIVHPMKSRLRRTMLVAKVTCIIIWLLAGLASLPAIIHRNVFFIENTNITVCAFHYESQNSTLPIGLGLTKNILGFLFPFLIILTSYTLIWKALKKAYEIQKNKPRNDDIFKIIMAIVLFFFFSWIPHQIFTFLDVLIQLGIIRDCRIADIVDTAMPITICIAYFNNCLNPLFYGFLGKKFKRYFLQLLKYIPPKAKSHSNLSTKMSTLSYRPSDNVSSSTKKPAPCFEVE
# Beta-galactosidase = Beta-galactosidase (Escherichia coli, UniProt Q8VNN2); test: PubChem AID 485352; assay type: functional
# [2] = biological target: T2, Heat shock factor protein 1 (Mus musculus, UniProt P38532); test: inhibition of MG132-induced HSE-luciferase signal, confirmation, cell-based, NIH3T3, luminescence, dose retest (AID 2382); assay type: functional;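 also: NIH3T3 fibroblasts with HSF1-driven luciferase reporter stressed by proteasome inhibitor MG132; luminescence from HSF1-driven luciferase expression after 8 hours of MG132 stress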
# T2 sequence (P38532 whole entry): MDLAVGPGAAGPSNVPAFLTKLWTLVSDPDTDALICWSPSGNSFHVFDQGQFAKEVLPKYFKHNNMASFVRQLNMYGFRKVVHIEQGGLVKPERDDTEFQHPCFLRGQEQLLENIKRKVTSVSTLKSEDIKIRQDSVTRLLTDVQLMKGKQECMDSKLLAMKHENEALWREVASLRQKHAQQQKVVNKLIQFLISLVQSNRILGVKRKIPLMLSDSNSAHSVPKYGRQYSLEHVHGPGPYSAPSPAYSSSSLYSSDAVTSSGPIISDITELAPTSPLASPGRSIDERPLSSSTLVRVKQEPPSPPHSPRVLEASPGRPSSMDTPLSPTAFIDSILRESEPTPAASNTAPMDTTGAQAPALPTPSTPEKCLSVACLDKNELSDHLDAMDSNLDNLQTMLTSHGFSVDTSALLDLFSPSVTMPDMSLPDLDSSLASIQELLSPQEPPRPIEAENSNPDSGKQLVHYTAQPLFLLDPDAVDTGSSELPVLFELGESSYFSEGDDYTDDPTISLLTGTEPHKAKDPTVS
# [3] = biological target: T3, Oxysterols receptor LXR-beta (Homo sapiens, UniProt P55055); assay type: functional, cell-based;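 also: Cell-based luminescence dose-response assay of agonist activity at LXR, run as a confirmatory counterscreen to a daf-12 agonist screen; HEK293 cells with Gal4-LXR fusion and GAL4-driven luciferase reporter; agonist potency from rising luciferase signal of a Gal4-LXR reporter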
# T3 sequence (P55055 whole entry): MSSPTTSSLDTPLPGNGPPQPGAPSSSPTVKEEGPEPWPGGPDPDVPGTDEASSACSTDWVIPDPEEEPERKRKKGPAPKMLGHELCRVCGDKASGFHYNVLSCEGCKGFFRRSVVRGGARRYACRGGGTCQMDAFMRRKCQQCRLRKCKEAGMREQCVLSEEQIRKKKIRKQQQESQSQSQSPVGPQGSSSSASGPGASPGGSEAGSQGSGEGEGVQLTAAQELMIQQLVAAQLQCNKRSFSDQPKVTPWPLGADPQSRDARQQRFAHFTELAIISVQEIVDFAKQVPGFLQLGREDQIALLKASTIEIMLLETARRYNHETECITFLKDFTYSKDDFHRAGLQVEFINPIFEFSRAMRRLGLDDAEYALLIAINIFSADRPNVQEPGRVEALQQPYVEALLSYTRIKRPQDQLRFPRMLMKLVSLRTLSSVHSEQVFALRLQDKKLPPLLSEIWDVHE
# [4] = biological target: DNA dC->dU-editing enzyme APOBEC-3A (Homo sapiens, UniProt P31941); test: APOBEC3A DNA deaminase inhibitors, dose response, biochemical (AID 504722); assay type: functional
# [5] = biological target: DNA dC->dU-editing enzyme APOBEC-3G (Homo sapiens, UniProt Q9HC16); test: Dose Response confirmation of small molecule APOBEC3G DNA Deaminase Inhibitors via a fluorescence-based single-stranded DNA deaminase assay. [Related pubchem assays (depositor defined):AID493012, AID493028]; assay type: functional
# [6] = A Cell Based Secondary Assay To Explore Cytotoxicity of Compounds that Sensitize Mycobacterium Tuberculosis to Beta-Lactam Antibiotics.; assay type: functional
# [7] = cytotoxicity in MIN6 insulinoma cells, dose response, cytotoxicity control, cell-based, mouse insulinoma (AID 2122); assay type: functional;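 also: confirmatory high-throughput counterscreen run to flag cytotoxic compounds; mouse MIN-6 beta cells carrying an insulin promoter eGFP reporter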
# [8] = insulin promoter down-regulators in MIN6 cells, imaging, high-content screening, mouse beta cells (AID 1628); assay type: functional
# [9] = biological target: Voltage-gated inwardly rectifying potassium channel KCNH2 (Homo sapiens, UniProt Q12809); settings: Potency;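 also: confirmatory quantitative high-throughput screen measuring inhibition of hERG channel activity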
# [10] = HepG2 cell cytotoxicity, dose response, cytotoxicity control, cherry-picked samples (AID 1159577); assay type: functional, cell-based
# [11] = P. falciparum Dd2 growth inhibitors, dose response, SYBR Green, cherry-picked samples (AID 1159567); assay type: functional, cell-based
# HEK293 [12] = test: NOD1 signaling inhibitors, primary screen, cell-based, luminescence, uHTS (AID 1578); assay type: functional; settings: Homo sapiens
# HEK293 [13] = test: cells; assay type: functional, cell-based; settings: Homo sapiens
# HEK293 [14] = test: cells; assay type: functional, cell-based; settings: Homo sapiens; remark: listed apart in the source
# HEK293 [15] = test: NOD2 signaling inhibitors in MDP-stimulated cells, cell-based, uHTS, luminescence (AID 2001); assay type: functional; settings: Homo sapiens
# Streptokinase A = biological target: T4, Streptokinase A (Streptococcus pyogenes serotype M1, UniProt P10520); test: S. pyogenes streptokinase expression inhibitors, potency, dose response, plasminogen activation absorbance, OD405 (AID 1914); assay type: functional, Streptococcus pyogenes M1 GAS;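 also: secreted streptokinase activity via plasminogen activation per viability signal from cell pellet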
# T4 sequence (P10520 whole entry): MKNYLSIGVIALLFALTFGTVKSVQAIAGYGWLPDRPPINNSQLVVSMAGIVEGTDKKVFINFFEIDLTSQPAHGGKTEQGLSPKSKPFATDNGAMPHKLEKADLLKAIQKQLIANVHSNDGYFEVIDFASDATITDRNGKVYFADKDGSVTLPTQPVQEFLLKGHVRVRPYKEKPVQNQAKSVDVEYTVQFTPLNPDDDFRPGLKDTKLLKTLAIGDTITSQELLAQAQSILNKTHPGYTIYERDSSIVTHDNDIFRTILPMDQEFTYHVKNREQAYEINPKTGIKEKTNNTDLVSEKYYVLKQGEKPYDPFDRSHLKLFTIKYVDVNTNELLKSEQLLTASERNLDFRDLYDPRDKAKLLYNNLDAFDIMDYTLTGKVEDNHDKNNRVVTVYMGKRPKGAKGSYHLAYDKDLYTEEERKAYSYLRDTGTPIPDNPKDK
# [16] = HEp-2 cell cytotoxicity, dose response, cytotoxicity control for RSV inhibitor project, HTS (AID 2410); assay type: functional; settings: human respiratory syncytial virus
# [17] = inhibitors of intracellular T. cruzi replication, confirmation, NIH3T3 host cells, beta-gal luminescence (AID 2044); assay type: functional, cell-based;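 also: intracellular parasites grown in NIH/3T3 mouse fibroblasts as host cells; luminescent beta-galactosidase reporter signal from transgenic T. cruzi replicating inside host cells; inhibitors lower the luminescence signal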
# Streptococcus = test: Group A Streptococcus viability loss, dose response, counter-screen for streptokinase expression inhibitor project, luminescence, BacTiterGlo (AID 1915); assay type: functional, organism-based;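 also: potency for reduction of bacterial viability or growth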
# [18] = tested on: Streptococcus sp. 'group A'; test: growth inhibition of control SK(-) GAS strain, dose response, counter-screen for streptokinase expression inhibitor project, luminescence, kanamycin, BacTiterGlo, confirmation (AID 1900); assay type: functional, organism-based
# [19] = cytotoxicity toward NIH3T3 fibroblasts, dose response, counter-screen, cell-based, ATP luminescence, mouse fibroblasts (AID 2010); assay type: functional;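 also: cells exposed to compound for about 90 hours before reading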
# Sequence of DNA dC->dU-editing enzyme APOBEC-3G (Q9HC16 whole entry): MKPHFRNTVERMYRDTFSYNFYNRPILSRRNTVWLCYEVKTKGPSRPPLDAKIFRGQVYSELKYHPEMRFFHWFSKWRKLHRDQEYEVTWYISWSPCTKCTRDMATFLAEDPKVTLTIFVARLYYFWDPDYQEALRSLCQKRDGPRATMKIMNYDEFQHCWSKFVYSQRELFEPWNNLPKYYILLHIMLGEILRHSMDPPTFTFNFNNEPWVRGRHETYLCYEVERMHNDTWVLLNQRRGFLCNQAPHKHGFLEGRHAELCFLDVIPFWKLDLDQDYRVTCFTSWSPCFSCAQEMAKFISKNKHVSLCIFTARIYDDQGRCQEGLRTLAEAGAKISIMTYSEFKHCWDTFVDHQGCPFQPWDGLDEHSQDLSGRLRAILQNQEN
# Sequence of DNA dC->dU-editing enzyme APOBEC-3A (P31941 whole entry): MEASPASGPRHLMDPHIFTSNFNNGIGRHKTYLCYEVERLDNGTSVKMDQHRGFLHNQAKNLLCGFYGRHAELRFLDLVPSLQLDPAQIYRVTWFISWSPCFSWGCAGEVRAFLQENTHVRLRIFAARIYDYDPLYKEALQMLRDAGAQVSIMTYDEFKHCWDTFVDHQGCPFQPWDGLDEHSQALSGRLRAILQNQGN
# Sequence of Voltage-gated inwardly rectifying potassium channel KCNH2 (Q12809 whole entry): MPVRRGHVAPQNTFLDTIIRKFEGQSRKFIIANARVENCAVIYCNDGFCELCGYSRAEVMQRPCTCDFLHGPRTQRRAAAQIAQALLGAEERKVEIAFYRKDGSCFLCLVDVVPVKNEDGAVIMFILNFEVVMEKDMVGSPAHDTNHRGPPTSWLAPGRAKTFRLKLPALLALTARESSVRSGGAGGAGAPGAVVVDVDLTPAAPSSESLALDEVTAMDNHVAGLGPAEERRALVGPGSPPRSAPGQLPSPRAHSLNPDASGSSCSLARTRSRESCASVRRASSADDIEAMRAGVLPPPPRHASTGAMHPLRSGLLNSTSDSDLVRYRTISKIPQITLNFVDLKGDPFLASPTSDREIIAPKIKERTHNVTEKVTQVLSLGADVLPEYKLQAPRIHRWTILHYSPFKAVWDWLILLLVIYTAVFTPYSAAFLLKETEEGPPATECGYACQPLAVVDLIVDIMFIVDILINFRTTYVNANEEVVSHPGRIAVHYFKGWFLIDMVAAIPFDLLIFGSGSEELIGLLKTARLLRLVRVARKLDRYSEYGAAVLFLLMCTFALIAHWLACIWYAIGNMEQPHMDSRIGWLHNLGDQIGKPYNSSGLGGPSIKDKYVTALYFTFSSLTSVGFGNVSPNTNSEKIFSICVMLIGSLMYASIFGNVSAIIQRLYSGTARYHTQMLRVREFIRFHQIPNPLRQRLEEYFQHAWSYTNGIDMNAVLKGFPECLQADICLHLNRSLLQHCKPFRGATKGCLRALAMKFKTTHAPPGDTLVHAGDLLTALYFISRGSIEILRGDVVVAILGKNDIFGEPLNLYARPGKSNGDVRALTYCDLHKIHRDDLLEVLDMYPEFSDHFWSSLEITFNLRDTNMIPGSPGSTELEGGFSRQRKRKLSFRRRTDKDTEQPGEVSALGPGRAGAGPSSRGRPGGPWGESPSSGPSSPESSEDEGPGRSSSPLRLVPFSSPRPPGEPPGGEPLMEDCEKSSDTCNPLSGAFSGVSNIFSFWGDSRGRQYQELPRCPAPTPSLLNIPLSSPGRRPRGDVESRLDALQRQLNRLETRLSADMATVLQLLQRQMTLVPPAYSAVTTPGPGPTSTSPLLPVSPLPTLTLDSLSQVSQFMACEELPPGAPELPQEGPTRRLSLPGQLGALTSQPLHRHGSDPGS
# Sequence of Beta-galactosidase (Q8VNN2 whole entry): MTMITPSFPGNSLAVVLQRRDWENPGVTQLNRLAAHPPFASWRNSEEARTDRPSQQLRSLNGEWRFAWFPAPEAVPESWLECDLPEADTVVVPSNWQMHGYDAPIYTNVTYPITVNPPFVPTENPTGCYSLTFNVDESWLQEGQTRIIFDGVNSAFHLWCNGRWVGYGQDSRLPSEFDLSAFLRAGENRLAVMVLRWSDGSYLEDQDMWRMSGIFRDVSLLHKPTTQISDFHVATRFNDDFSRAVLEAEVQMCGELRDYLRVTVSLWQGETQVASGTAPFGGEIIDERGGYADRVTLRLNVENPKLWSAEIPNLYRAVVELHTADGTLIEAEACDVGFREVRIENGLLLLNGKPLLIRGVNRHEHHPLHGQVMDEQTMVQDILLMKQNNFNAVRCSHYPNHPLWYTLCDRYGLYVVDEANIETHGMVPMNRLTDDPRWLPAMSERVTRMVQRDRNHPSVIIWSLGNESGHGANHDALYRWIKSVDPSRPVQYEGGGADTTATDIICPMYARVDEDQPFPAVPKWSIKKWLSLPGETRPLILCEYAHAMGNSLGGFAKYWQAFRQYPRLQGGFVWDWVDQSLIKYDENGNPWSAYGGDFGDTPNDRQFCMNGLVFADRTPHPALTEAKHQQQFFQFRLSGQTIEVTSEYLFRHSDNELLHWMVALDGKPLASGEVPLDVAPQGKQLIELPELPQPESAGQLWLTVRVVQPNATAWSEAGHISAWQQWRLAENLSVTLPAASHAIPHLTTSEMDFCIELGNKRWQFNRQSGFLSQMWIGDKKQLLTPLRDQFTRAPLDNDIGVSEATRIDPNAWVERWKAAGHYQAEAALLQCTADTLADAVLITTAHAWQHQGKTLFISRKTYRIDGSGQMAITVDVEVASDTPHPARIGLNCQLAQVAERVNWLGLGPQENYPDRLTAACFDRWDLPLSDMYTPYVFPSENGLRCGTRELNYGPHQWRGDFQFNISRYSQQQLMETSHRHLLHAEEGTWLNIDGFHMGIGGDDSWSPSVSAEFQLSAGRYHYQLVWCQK
structure (smiles),measurement,setting,value
CC1=NC(Nc2nc(C)c3ccccc3n2)=NC(C)(C)C1,IC50,[1],13 µM (active)
same,EC50,Beta-galactosidase,> 40 µM (inactive)
Cc1ccc2[nH]c(-c3sc4nc(C)cc(C)c4c3N)nc2c1,EC50,cells,> 67.5 µM (inactive)
same,EC50,[2],21 µM (active)
same,EC50,[3],> 67.5 µM (inactive)
COC(=O)C(C)Sc1nnc(S)s1 (stereo unspecified),IC50,[4],> 100 µM (inactive)
same,IC50,[5],15.8 µM (active)
CC(=O)n1cc([C@@H]2C=C(C(=O)N3CCN(Cc4ccc5c(c4)OCO5)CC3)O[C@H](OCCCCO)C2)c2ccccc21,CC50,[6],> 40 µM (active)
N#Cc1ccccc1NC(=O)C1SC(Nc2ccccc2)=C(C(=O)Nc2ccc(Cl)cc2)C1=N (stereo unspecified),IC50,[7],6.4 µM (active)
same,IC50,[8],8.77 µM (active)
CN1C(=O)CCC1c1cccnc1 (stereo unspecified),AC50,[9],3.16 µM (inconclusive)
O=C(NC1=NCCS1)c1sc2cc(F)ccc2c1Cl,EC50,cells,> 67.6 µM (inactive)
same,EC50,[3],> 67.6 µM (inactive)
C[C@@H]1CN([C@@H](C)CO)C(=O)c2cc(NC(=O)Nc3ccc(C(F)(F)F)cc3)ccc2O[C@H]1CN(C)CC1CCCCC1,AC50,[10],22 µM (active)
same,AC50,[11],10.6 µM (active)
Nc1ccc(S(=O)(=O)Nc2nccc(/C=C/c3cccc(Br)c3)n2)cc1,EC50,HEK293 [12],8.24 µM (active)
same,IC50,HEK293 [13],> 20 µM (inactive)
same,IC50,HEK293 [14],12.8 µM (active)
same,IC50,HEK293 [15],7.62 µM (active)
CCn1c(=O)n(CC)c2cc(N3CCCC3)c(NC(=O)c3cc(Br)ccc3OC)cc21,CC50,[6],37.6 µM (active)
same,EC50,Streptokinase A,18.5 µM (active)
same,CC50,[16],16.4 µM (active)
same,EC50,[17],0.99 µM (active)
same,EC50,Streptococcus,11.2 µM (active)
same,EC50,[18],7.36 µM (active)
same,EC50,[19],12 µM (active)
